Results reported in paper PMC10350920, “Development of a 2,4-Diaminothiazole Series for the Treatment of Human African Trypanosomiasis Highlights the Importance of Static–Cidal Screening of Analogues” (Journal of Medicinal Chemistry, 2023).

Legend:
[1] = test system: BSF T. b. brucei “single marker” S427; test: Drug sensitivity assay with bloodstream-form T. brucei; type: cell-based; conditions: for EC50: Trypanosoma brucei, mean values, number of replicates in parentheses
Protocol: (§1) Drug sensitivity assays with BSF T. b. brucei “single marker” S427 and human MRC-5 fibroblasts were conducted as previously described.[43]

[2] = Mammalian cell counter screen (MRC-5); type: cell-based, human; conditions: human, MRC-5 fibroblasts; mean values; number of replicates in parentheses
Protocol: as §1

[3] = test system: human MRC-5 fibroblasts; test: Mammalian cell counter screen (MRC-5); type: cell-based; conditions: selectivity index (EC50 MRC5/EC50 T. brucei)
Protocol: as §1

[4] = Mouse liver microsomal intrinsic clearance; type: in vitro ADME
Protocol: Test compounds (0.5 μM) were incubated with female CD1 mouse liver microsomes (Xenotech LLC; 0.5 mg mL^–1 50 mM potassium phosphate buffer, pH 7.4), and the reaction started with the addition of excess NADPH (8 mg mL^–1 50 mM potassium phosphate buffer, pH 7.4). Immediately, at 0 min, and then at 3, 6, 9, 15, and 30 min, an aliquot (50 μL) of the incubation mixture was removed and mixed with acetonitrile (100 μL) to stop the reaction. The internal standard was added to all samples, the samples were centrifuged to sediment the precipitated protein, and the plates were then sealed prior to UPLC–MS/MS analysis using a Quattro Premier XE (Waters Corporation, USA). XLfit (IDBS, UK) was used to calculate the exponential decay and consequently the rate constant (k) from the ratio of the peak area of the test compound to the internal standard at each time point. The rate of intrinsic clearance (CLint) of each test compound was then calculated using the following calculation [drawing 3] where V (mL mg^–1 protein) is the incubation volume mg^–1 protein added and the microsomal protein yield is taken as 52.5 mg protein g^–1 liver. Verapamil (0.5 μM) was used as a positive control to confirm acceptable assay performance.

[5] = Rat microsomal intrinsic clearance; type: in vitro ADME; conditions: second value of mouse/rat cell
[6] = Mouse brain penetration (brain:blood ratio); type: in vivo, female NMRI mice; conditions: female, NMRI, mouse, brain and blood, 10 mg kg^–1; mice, bolus of test compound, total compound; read-out: brain/blood (B/B) ratio
Protocol: Medicines for HAT are required to treat both acute and chronic infections, where parasites pass through the blood/brain barrier and enter the CNS. With this in mind, mice were dosed with an […] bolus of our test compounds, and compound concentrations in blood and brain were determined by UPLC–MS/MS. […] The brain fraction unbound was 0.0063 for 16 and 0.0313 for 38. Brain penetration of the series as a whole tracked with the generally accepted rules of CNS penetration, with a lower topological PSA (TPSA) and molecular weight compounds having an increased B/B ratio (Table S2 and Figure S1). However, the link between log P and the B/B ratio was slightly less convincing. […] This difference could be explained by 18 being a substrate for the P-glycoprotein efflux pump.
Each compound was dosed as an IV bolus at 10 mg kg^–1 dissolved in 15% solutol/Milli-Q (dose volume 10 mL kg^–1) to female NMRI mice (n = 3). At 30 min following the IV bolus of the test compound, mice (n = 3/time point) were placed under terminal anesthesia with isoflurane. A blood sample was taken by cardiac puncture and added to two volumes of distilled water, and the brain was removed. […] For each mouse at each time point, the concentration in the brain (ng g^–1) was divided by the concentration in blood (ng mL^–1) to give a brain: blood ratio.

| Compound | EC50 [1] [nM] | EC50 [2] [nM] | SI [3] | CLint (mouse) [4] [mL·min/g] | CLint (rat) [5] [mL·min/g] | reduction (loss, drop off) in potency against T. brucei relative to parent analogue ([1]; SAR comparison) [fold] | improvement in activity against T. brucei relative to parent analogue ([1]; SAR comparison) [fold] | Kp at 30 min [6] |
| --- | --- | --- | --- | --- | --- | --- | --- | --- |
| CC(OCC(=O)c1sc(Nc2ccc3c(c2)OC(F)(F)O3)nc1N)C(F)(F)F (stereo not drawn) [Compound 53, 1-(4-Amino-2-((2,2-difluorobenzo[d][1,3]dioxol-5-yl)amino)thiazol-5-yl)-2-((1,1,1-trifluoropropan-2-yl)oxy)ethan-1-one] | 30 | > 50000 | 1667 | 5 | 1.2 |  |  |  |
| Nc1nc(Nc2ccc(F)c(F)c2)sc1C(=O)CN1CCCC1 [Compound 58, 1-(4-Amino-2-((3,4-difluorophenyl)amino)thiazol-5-yl)-2-(pyrrolidin-1-yl)ethanone] | 90 | 48000 | 533 | 2.1 | 2.2 |  |  |  |
| Nc1nc(Nc2ccc(F)c(F)c2)sc1C(=O)CN1C[C@H]2CC[C@@H](C1)O2 [Compound 66, 1-(4-Amino-2-((3,4-difluorophenyl)amino)thiazol-5-yl)-2-((1R,5S)-8-oxa-3-azabicyclo[3.2.1]octan-3-yl)ethanone] | 110 | > 50000 | 455 | 8.8 | 15.1 |  |  |  |
| CC(OCC(=O)c1sc(Nc2ccc(C(F)(F)F)cc2)nc1N)C(F)(F)F (stereo not drawn) [Compound 52, 1-(4-Amino-((4-(trifluoromethyl)phenyl)amino)thiazol-5-yl)-2-((1,1,1-trifluoropropan-2-yl)oxy)ethanone] | 70 | 38000 | 543 | 2.3 | 0.5 | 10 |  |  |
| Nc1nc(Nc2ccc(F)c(F)c2)sc1C(=O)CN1CCCC1C(F)(F)F (stereo not drawn) [Compound 60, 1-(4-Amino-2-((3,4-difluorophenyl)amino)thiazol-5-yl)-2-(2-(trifluoromethyl)pyrrolidin-1-yl)ethanone] | 20 | 32000 | 1600 | 26 | 10 |  |  |  |
| COc1ccc(Nc2nc(N)c(C(=O)COC(C)C(F)(F)F)s2)cn1 (stereo not drawn) [Compound 57, 1-(4-Amino-2-((6-methoxypyridin-3-yl)amino)thiazol-5-yl)-2-((1,1,1-trifluoropropan-2-yl)oxy)ethanone] | 70 | > 50000 | 714 | 9.0 | 2.4 |  |  |  |
| CC(C)OCC(=O)c1sc(Nc2ccc(F)c(F)c2)nc1N [Compound 42, 1-(4-Amino-2-((3,4-difluorophenyl)amino)thiazol-5-yl)-2-isopropoxyethanone] | 20 | > 50000 | 2500 | 9.3 | 3.6 |  | 10 |  |
| Nc1nc(Nc2ccc(F)c(F)c2)sc1C(=O)CN1CCC(F)(F)CC1 [Compound 68, 1-(4-Amino-2-((3,4-difluorophenyl)amino)thiazol-5-yl)-2-(4,4-difluoropiperidin-1-yl)ethanone] | 20 | 47000 | 2350 | 9.3 | 11 |  |  |  |
| CC(OCC(=O)c1sc(Nc2ccc(Cl)cc2)nc1N)C(F)(F)F (stereo not drawn) [Compound 51, 1-(4-Amino-2-((4-chlorophenyl)amino)thiazol-5-yl)-2-((1,1,1-trifluoropropan-2-yl)oxy)ethanone] | 8 | > 50000 | 6250 | 5.3 | 1.7 |  |  | 0.9 |
| Nc1nc(Nc2ccc(F)c(F)c2)sc1C(=O)CN1CCCCC1 [Compound 61, 1-(4-Amino-2-((3,4-difluorophenyl)amino)thiazol-5-yl)-2-(piperidin-1-yl)ethanone] | 60 | 49000 | 816 | 7.7 | 6.7 |  |  |  |
| CC1CCCN1CC(=O)c1sc(Nc2ccc(F)c(F)c2)nc1N (stereo not drawn) [Compound 59, 1-(4-Amino-2-((3,4-difluorophenyl)amino)thiazol-5-yl)-2-(2-methylpyrrolidin-1-yl)ethanone] | 50 | > 50000 | 1000 | 5.2 | 3.1 |  |  |  |
| Nc1nc(Nc2ccc(F)c(F)c2)sc1C(=O)COC1CC(F)(F)C1(F)F (stereo not drawn) [Compound 47, 1-(4-Amino-2-((3,4-difluorophenyl)amino)thiazol-5-yl)-2-(2,2,3,3-tetrafluorocyclobutoxy)ethanone] | 10 | 29000 | 2900 | 5.2 | 4.4 |  |  |  |
| Nc1nc(Nc2ccc(F)c(F)c2)sc1C(=O)CCN1CCOCC1 [Compound 64, 1-(4-Amino-2-((3,4-difluorophenyl)amino)thiazol-5-yl)-3-morpholinopropan-1-one] | 5000 | 29000 | 6 | 1.2 | 8.3 | > 110 |  |  |
| Nc1nc(Nc2ccc(F)c(F)c2)sc1C(=O)CN1C[C@@H]2C[C@H]1CO2 [Compound 65, 1-(4-Amino-2-((3,4-difluorophenyl)amino)thiazol-5-yl)-2-((1S,4S)-2-oxa-5-azabicyclo[2.2.1]heptan-5-yl)ethanone] | 40 | > 50000 | 1250 | 4.1 | 4.9 |  |  |  |
| CC(C)C(=O)c1sc(NC2CCCCC2)nc1N [Compound 18, 1-(4-Amino-2-(cyclohexylamino)thiazol-5-yl)-2-methylpropan-1-one] | 2400 | 10000 | 4 | 0.5 |  |  |  | 0.06 |
| Nc1nc(Nc2ccc(F)c(F)c2)sc1C(=O)CN1CCCC(F)(F)C1 [Compound 67, 1-(4-Amino-2-((3,4-difluorophenyl)amino)thiazol-5-yl)-2-(3,3-difluoropiperidin-1-yl)ethanone] | 20 | 5000 | 250 | 33 | 20 |  |  |  |
